Results as given in ChEMBL document CHEMBL3593212, “Synthesis and evaluation of novel 1H-pyrrolo[2,3-b]pyridine-5-carboxamide derivatives as potent and orally efficacious immunomodulators targeting JAK3” (Bioorg Med Chem, 2015).

Assays:
[1] = Intrinsic clearance in cynomolgus monkey liver microsomes at 0.2 uM in presence of NADPH generating system by LC/MS/MS method; format: ADME, Macaca fascicularis; conditions: read-out: CLH
[2] = molecular target: Tyrosine-protein kinase Tec (Homo sapiens, UniProt P42680); experiment: Inhibition of TEC (unknown origin)
[3] = molecular target: Tyrosine-protein kinase CSK (Homo sapiens, UniProt P41240); experiment: Inhibition of CSK (unknown origin)
[4] = molecular target: Epidermal growth factor receptor (Homo sapiens, UniProt P00533); experiment: Inhibition of EGFR (unknown origin)
Ephrin type-A receptor 2 = Ephrin type-A receptor 2 (Homo sapiens, UniProt P29317); experiment: Inhibition of EPHA2 (unknown origin)
[5] = Effective permeability of the compound at pH 7.4 by PAMPA method; format: physicochemical; conditions: read-out: Peff
[6] = Cmax in cynomolgus monkey at 3 mg/kg, po by LC/MS/MS method; format: ADME, organism-based, Macaca fascicularis; set-up: dose 3 mg/kg, route oral; conditions: in vivo
[7] = Total clearance in beagle dog at 1 mg/kg, iv by LC/MS/MS method; format: ADME, organism-based, Canis lupus familiaris; conditions: in vivo
[8] = molecular target: Insulin-like growth factor 1 receptor (Homo sapiens, UniProt P08069); experiment: Inhibition of IGF1R (unknown origin)
[9] = molecular target: Tyrosine-protein kinase JAK1 (Homo sapiens, UniProt P23458); experiment: Inhibition of human JAK1 kinase domain using biotin-Lyn-substrate-2 as substrate incubated for 1 hr by ELISA method
[10] = molecular target: Calcium/calmodulin-dependent protein kinase type II subunit alpha (Homo sapiens, UniProt Q9UQM7); experiment: Inhibition of CaMK2a (unknown origin)
[11] = AUC (0 to 24 hrs) in beagle dog at 3 mg/kg, po by LC/MS/MS method; format: ADME, organism-based, Canis lupus familiaris; set-up: time < 24 hr, dose 3 mg/kg, route oral; conditions: in vivo
[12] = AUC (0 to 24 hrs) in Sprague-Dawley rat at 1 mg/kg, iv by LC/MS/MS method; format: ADME, organism-based; set-up: dose 1 mg/kg, time < 24 hr, route intravenous; conditions: in vivo
[13] = AUC (0 to 24 hrs) in cynomolgus monkey at 1 mg/kg, iv by LC/MS/MS method; format: ADME, organism-based, Macaca fascicularis; set-up: time < 24 hr, dose 1 mg/kg, route intravenous; conditions: in vivo
[14] = molecular target: High affinity nerve growth factor receptor (Homo sapiens, UniProt P04629); experiment: Inhibition of TRKA (unknown origin)
[15] = molecular target: Mitogen-activated protein kinase kinase kinase 1 (Homo sapiens, UniProt Q13233); experiment: Inhibition of MEKK1 (unknown origin)
Angiopoietin-1 receptor = Angiopoietin-1 receptor (Homo sapiens, UniProt Q02763); experiment: Inhibition of TIE2 (unknown origin)
[16] = Total clearance in Sprague-Dawley rat at 1 mg/kg, iv by LC/MS/MS method; format: ADME, organism-based; conditions: in vivo
[17] = molecular target: Tyrosine-protein kinase JAK2 (Homo sapiens, UniProt O60674); experiment: Inhibition of human JAK2 kinase domain using biotin-Lyn-substrate-2 as substrate incubated for 1 hr by ELISA method
[18] = Cmax in beagle dog at 3 mg/kg, po by LC/MS/MS method; format: ADME, organism-based, Canis lupus familiaris; set-up: dose 3 mg/kg, route oral; conditions: in vivo
[19] = AUC (0 to 24 hrs) in Sprague-Dawley rat at 3 mg/kg, po by LC/MS/MS method; format: ADME, organism-based; set-up: dose 3 mg/kg, time < 24 hr, route oral; conditions: in vivo
[20] = molecular target: Protein kinase C theta type (Homo sapiens, UniProt Q04759); experiment: Inhibition of PKCtheta (unknown origin)
[21] = AUC (0 to 24 hrs) in beagle dog at 1 mg/kg, iv by LC/MS/MS method; format: ADME, organism-based, Canis lupus familiaris; set-up: dose 1 mg/kg, time < 24 hr, route intravenous; conditions: in vivo
[22] = Volume of distribution at steady state in beagle dog at 1 mg/kg, iv by LC/MS/MS method; format: ADME, organism-based, Canis lupus familiaris; conditions: in vivo, read-out: Vdss
[23] = molecular target: Serine/threonine-protein kinase Chk1 (Homo sapiens, UniProt O14757); experiment: Inhibition of CHK1 (unknown origin)
[24] = Half life in cynomolgus monkey at 1 mg/kg, iv by LC/MS/MS method; format: ADME, organism-based, Macaca fascicularis; conditions: in vivo
[25] = molecular target: Tyrosine-protein kinase ZAP-70 (Homo sapiens, UniProt P43403); experiment: Inhibition of ZAP70 (unknown origin)
[26] = molecular target: Tyrosine-protein kinase ITK/TSK (Homo sapiens, UniProt Q08881); experiment: Inhibition of ITK (unknown origin)
[27] = molecular target: Ribosomal protein S6 kinase beta-1 (Homo sapiens, UniProt P23443); experiment: Inhibition of p70S6K (unknown origin)
[28] = Volume of distribution at steady state in Sprague-Dawley rat at 1 mg/kg, iv by LC/MS/MS method; format: ADME, organism-based; conditions: in vivo, read-out: Vdss
[29] = molecular target: Cyclin-dependent kinase 2/cyclin A (Homo sapiens, UniProt P24941); experiment: Inhibition of CDK2/CycA (unknown origin); format: protein-complex assay
[30] = molecular target: Mitogen-activated protein kinase 10 (Homo sapiens, UniProt P53779); experiment: Inhibition of JNK3 (unknown origin)
[31] = Tmax in Sprague-Dawley rat at 3 mg/kg, po by LC/MS/MS method; format: ADME, organism-based; conditions: in vivo
[32] = Half life in beagle dog at 1 mg/kg, iv by LC/MS/MS method; format: ADME, organism-based, Canis lupus familiaris; conditions: in vivo
[33] = molecular target: Interleukin-1 receptor-associated kinase 4 (Homo sapiens, UniProt Q9NWZ3); experiment: Inhibition of IRAK4 (unknown origin)
[34] = molecular target: Voltage-gated inwardly rectifying potassium channel KCNH2 (Homo sapiens, UniProt Q12809)
Description: Inhibition of human ERG expressed in CHOK1 cells incubated for 10 mins by Rb efflux assay

[35] = molecular target: Mitogen-activated protein kinase kinase kinase 9 (Homo sapiens, UniProt P80192); experiment: Inhibition of MLK1 (unknown origin)
[36] = molecular target: Receptor tyrosine-protein kinase erbB-2 (Homo sapiens, UniProt P04626); experiment: Inhibition of HER2 (unknown origin)
[37] = Tmax in cynomolgus monkey at 3 mg/kg, po by LC/MS/MS method; format: ADME, organism-based, Macaca fascicularis; conditions: in vivo
[38] = Intrinsic clearance in beagle dog liver microsomes at 0.2 uM in presence of NADPH generating system by LC/MS/MS method; format: ADME, Canis lupus familiaris; conditions: read-out: CLH
[39] = molecular target: Tyrosine-protein kinase ABL1 (Homo sapiens, UniProt P00519); experiment: Inhibition of ABL (unknown origin)
[40] = molecular target: Tyrosine-protein kinase SYK (Homo sapiens, UniProt P43405); experiment: Inhibition of SYK (unknown origin)
[41] = Oral bioavailability in Sprague-Dawley rat at 3 mg/kg by LC/MS/MS method; format: ADME, organism-based; conditions: in vivo
Aurora kinase C = Aurora kinase C (Homo sapiens, UniProt Q9UQB9); experiment: Inhibition of AurC (unknown origin)
[42] = Cmax in Sprague-Dawley rat at 3 mg/kg, po by LC/MS/MS method; format: ADME, organism-based; set-up: dose 3 mg/kg, route oral; conditions: in vivo
[43] = molecular target: Glycogen synthase kinase-3 beta (Homo sapiens, UniProt P49841); experiment: Inhibition of GSK3beta (unknown origin)
Rattus norvegicus = experiment: Inhibition of allograft rejection in Lewis rat vascularized heterotopic cardiac transplantation model using ACI rat as cardiac donor assessed as mean survival time by measuring cardiac allograft function by daily palpation for 28 days at 20 mg/kg, po administered beginning on day of operation once daily for 14 consecutive days (reference value: 5 days); format: functional
[44] = molecular target: Dual specificity mitogen-activated protein kinase kinase 1 (Homo sapiens, UniProt Q02750); experiment: Inhibition of MEK1 (unknown origin)
[45] = Inhibition of JAK1/JAK3 in Lewis rat splenocytes assessed as reduction in IL2-stimulated T-cell proliferation incubated for 3 days by alamar blue dye based fluorescence assay; conditions: 72 h

Sequence of Interleukin-1 receptor-associated kinase 4 (Q9NWZ3 whole entry): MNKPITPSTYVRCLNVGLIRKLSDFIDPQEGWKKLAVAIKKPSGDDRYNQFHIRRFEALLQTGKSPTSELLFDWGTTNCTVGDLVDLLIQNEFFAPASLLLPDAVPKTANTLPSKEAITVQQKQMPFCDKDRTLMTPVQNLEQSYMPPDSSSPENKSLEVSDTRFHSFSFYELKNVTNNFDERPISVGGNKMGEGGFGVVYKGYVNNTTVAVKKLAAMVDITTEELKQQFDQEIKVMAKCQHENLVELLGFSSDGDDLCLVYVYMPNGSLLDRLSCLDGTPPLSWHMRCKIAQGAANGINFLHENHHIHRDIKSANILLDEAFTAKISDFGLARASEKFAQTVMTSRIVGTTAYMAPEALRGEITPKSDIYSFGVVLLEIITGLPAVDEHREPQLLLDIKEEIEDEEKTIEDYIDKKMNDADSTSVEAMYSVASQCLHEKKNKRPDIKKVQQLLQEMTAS
Sequence of Glycogen synthase kinase-3 beta (P49841 whole entry): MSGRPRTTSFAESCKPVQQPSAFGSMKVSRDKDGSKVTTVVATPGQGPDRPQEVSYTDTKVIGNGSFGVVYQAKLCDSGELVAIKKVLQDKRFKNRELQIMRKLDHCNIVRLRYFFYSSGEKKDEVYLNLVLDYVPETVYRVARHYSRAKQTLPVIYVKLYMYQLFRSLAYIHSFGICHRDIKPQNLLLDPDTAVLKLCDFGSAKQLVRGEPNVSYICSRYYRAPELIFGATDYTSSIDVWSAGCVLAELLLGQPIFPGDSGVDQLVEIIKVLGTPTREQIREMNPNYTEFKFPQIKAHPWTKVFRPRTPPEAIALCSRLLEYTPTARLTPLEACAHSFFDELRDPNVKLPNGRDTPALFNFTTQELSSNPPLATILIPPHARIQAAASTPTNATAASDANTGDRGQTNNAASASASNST
Sequence of Tyrosine-protein kinase ITK/TSK (Q08881 whole entry): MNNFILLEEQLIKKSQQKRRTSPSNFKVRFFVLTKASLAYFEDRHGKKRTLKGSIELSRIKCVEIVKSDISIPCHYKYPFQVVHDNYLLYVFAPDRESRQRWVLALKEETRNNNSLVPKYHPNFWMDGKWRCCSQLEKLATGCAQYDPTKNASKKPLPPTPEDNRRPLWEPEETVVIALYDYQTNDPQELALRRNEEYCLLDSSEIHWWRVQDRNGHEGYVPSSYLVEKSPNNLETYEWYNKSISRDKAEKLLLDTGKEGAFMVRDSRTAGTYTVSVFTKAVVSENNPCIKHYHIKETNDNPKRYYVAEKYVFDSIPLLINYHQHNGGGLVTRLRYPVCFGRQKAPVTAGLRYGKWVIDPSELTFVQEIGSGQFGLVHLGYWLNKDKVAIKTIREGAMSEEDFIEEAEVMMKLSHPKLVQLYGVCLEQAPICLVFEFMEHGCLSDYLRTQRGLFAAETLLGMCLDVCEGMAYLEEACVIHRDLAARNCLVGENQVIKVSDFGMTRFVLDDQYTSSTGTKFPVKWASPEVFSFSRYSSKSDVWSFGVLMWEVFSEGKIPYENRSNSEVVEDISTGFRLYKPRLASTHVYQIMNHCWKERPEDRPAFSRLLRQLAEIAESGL
Sequence of Tyrosine-protein kinase CSK (P41240 whole entry): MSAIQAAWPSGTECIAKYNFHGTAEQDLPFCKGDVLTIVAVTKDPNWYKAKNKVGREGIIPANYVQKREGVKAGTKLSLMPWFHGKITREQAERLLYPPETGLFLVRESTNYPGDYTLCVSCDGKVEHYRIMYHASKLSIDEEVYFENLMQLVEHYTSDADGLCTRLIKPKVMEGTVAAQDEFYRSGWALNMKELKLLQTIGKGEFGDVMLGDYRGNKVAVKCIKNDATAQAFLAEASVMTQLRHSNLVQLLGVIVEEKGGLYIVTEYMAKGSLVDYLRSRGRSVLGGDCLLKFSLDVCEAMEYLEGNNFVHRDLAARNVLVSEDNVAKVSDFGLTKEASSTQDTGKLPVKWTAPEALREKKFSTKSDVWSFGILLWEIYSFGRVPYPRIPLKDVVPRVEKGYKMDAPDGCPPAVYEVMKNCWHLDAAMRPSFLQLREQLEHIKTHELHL
Sequence of Angiopoietin-1 receptor (Q02763 whole entry): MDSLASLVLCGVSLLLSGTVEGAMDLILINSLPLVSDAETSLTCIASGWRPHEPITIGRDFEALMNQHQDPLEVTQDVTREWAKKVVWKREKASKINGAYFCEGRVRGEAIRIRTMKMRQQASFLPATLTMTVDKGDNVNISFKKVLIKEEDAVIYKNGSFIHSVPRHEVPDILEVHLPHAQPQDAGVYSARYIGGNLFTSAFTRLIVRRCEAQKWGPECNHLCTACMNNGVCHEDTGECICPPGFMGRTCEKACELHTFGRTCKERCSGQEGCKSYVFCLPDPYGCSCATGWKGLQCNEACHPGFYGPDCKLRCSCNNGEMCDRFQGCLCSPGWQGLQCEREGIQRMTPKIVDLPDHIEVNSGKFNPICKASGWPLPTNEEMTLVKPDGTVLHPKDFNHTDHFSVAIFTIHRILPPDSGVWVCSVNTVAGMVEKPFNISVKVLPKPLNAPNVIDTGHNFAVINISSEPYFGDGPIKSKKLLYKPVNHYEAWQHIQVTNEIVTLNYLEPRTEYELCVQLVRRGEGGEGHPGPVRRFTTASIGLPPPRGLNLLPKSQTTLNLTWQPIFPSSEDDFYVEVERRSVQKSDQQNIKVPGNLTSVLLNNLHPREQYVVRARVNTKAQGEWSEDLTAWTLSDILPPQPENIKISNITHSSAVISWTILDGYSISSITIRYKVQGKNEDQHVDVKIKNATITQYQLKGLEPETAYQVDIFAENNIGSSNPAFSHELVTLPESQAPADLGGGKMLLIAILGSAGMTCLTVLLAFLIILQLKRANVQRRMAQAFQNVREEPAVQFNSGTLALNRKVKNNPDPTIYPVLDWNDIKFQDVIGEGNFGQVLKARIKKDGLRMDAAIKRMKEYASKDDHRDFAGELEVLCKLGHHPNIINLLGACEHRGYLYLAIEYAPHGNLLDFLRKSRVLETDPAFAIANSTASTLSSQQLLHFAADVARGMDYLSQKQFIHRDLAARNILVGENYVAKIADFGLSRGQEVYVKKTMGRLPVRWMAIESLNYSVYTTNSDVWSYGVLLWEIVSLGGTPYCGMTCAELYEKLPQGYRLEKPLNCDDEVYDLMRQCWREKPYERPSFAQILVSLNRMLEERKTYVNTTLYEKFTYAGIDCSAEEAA
Sequence of Tyrosine-protein kinase JAK2 (O60674 whole entry, the tested form may be a part): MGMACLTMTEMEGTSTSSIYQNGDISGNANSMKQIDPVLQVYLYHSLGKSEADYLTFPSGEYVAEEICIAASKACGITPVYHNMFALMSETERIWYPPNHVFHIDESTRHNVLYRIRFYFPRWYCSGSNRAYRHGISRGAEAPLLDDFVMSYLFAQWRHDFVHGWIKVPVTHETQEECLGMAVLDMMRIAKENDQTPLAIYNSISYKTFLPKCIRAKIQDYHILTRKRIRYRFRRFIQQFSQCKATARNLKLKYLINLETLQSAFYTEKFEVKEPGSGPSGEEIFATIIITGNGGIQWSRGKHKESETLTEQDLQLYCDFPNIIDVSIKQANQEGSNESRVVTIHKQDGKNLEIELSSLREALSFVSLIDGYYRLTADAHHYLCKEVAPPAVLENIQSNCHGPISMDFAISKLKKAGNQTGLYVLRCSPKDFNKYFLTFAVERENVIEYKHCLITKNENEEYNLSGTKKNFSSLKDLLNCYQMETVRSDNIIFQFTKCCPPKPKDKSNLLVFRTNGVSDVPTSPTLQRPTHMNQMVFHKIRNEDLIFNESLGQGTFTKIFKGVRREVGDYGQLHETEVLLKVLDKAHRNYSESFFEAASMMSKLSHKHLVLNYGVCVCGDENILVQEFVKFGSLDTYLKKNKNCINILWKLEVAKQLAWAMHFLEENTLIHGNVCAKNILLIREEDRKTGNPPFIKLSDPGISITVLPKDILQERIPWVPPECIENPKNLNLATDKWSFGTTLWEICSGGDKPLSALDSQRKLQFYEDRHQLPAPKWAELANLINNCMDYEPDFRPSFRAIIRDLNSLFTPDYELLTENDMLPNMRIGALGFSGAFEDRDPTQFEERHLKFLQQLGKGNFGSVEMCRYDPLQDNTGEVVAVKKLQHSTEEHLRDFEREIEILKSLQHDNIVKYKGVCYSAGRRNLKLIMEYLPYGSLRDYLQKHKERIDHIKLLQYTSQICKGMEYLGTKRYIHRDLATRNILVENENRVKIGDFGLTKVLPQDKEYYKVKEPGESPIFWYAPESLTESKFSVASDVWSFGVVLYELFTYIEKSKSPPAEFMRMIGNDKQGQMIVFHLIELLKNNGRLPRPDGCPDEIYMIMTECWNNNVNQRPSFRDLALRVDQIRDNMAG
Sequence of Dual specificity mitogen-activated protein kinase kinase 1 (Q02750 whole entry): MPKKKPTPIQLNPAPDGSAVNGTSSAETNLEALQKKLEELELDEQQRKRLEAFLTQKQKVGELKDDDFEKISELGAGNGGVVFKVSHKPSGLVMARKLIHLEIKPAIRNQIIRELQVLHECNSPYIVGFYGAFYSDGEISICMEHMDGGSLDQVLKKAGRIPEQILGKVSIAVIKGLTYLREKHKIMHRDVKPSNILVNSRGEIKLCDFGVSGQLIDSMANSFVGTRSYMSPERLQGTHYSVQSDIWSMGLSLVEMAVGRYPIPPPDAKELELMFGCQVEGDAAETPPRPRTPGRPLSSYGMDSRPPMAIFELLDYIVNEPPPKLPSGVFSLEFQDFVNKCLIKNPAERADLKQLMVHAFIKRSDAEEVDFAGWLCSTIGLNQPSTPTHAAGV
Sequence of Aurora kinase C (Q9UQB9 whole entry): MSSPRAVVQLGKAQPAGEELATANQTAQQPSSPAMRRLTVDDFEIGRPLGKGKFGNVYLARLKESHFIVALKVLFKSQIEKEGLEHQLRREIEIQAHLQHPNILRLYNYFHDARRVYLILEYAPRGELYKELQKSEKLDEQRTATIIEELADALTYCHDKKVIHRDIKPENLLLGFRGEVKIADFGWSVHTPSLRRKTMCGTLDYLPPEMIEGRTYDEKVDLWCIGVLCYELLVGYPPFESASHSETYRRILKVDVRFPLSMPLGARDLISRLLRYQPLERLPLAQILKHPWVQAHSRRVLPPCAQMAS

In the case of `N#Cc1ccc(N2CC[C@@H](Nc3c(C(N)=O)cnc4[nH]ccc34)[C@@H](F)C2)nc1`, the CLint scaled at 0.2 µM [1] is reported as 9.9 mL/min/kg, the IC50 [2] is reported as > 1000 nM and the IC50 [3] is reported as > 1000 nM. For the same compound, the IC50 [4] was > 1000 nM, the IC50 (Ephrin type-A receptor 2) was > 1000 nM and the Papp [5] was 9 ×10⁻⁶ cm/s. For the same compound, the Cmax [6] was 684 ng/mL, the clearance [7] was 3 mL/min/kg and the IC50 [8] was > 1000 nM. The IC50 [9] was 4.1 nM, the IC50 [10] was 1000 nM and the AUC(0-t) at 24 h [11] was 8300 ng·h/mL. For the same compound, the AUC(0-t) at 24 h [12] was 3200 ng·h/mL, the AUC(0-t) at 24 h [13] was 4490 ng·h/mL and the IC50 [14] was 470 nM. For the same compound, the IC50 [15] was > 1000 nM, the IC50 (Angiopoietin-1 receptor) was > 1000 nM and the clearance [16] was 5.3 mL/min/kg. The IC50 [17] was 3.2 nM, the Cmax [18] was 666 ng/mL and the AUC(0-t) at 24 h [19] was 6780 ng·h/mL. The IC50 [20] was 320 nM, the AUC(0-t) at 24 h [21] was 5650 ng·h/mL and the Vd [22] was 1 L/kg. For the same compound, the IC50 [23] was 950 nM, the half-life [24] was 5.4 h and the IC50 [25] was > 1000 nM. The IC50 [26] was > 1000 nM, the IC50 [27] was > 1000 nM and the Vd [28] was 1.1 L/kg. It also gave an IC50 [29] of 590 nM, an IC50 [30] of 560 nM and a Tmax [31] of 3.3 h. For the same compound, the half-life [32] was 4.2 h, the IC50 [33] was > 1000 nM and the IC50 [34] was > 100000 nM. For the same compound, the IC50 [35] was 51 nM, the IC50 [36] was > 1000 nM and the Tmax [37] was 5.3 h. For the same compound, the CLint scaled at 0.2 µM [38] was 18.8 mL/min/kg, the IC50 [39] was > 1000 nM and the IC50 [40] was > 1000 nM. The bioavailability [41] was 70.7%, the IC50 (Aurora kinase C) was > 1000 nM and the Cmax [42] was 633 ng/mL. For the same compound, the IC50 [43] was 980 nM, the MST (Rattus norvegicus) was 22 days and the IC50 [44] was > 1000 nM. For the same compound, the IC50 [45] was 11 nM.
